30 molecules from publication PMC4850295, “Using a Genetically Encoded Sensor to Identify Inhibitors of Toxoplasma gondii Ca^2+ Signaling” (The Journal of Biological Chemistry, 2016) can be followed below.

This assay relates to T1, GCaMP5-expressing T. gondii.
T1 construct: whole extracellular parasites expressing GCaMP5 Ca2+ sensor
On the set-up: species or system GCaMP5-expressing Toxoplasma gondii, extracellular; GCaMP5 fluorescence (cytosolic Ca2+) after 100 uM zaprinast in compound-pretreated extracellular parasites, background-subtracted, relative to zaprinast alone. The conditions noted are these: 100 uM zaprinast stimulation; 10 min pretreatment; mean of two replicates; 0.23 h. In short, it runs like this: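 Read-out is GCaMP5 calcium fluorescence (ex 485/em 525 nm) taken 4 min after 100 μM zaprinast at 37 °C, following 10 min compound pretreatment at 10 μM in duplicate biological replicates. Values are basal-subtracted fold change versus zaprinast-only controls; parasites held extracellular in Ringer's solution.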

Regarding `Cn1c(-c2nonc2N)nc2cnccc21` [SB-736290], the “fold change in fluorescence relative to zaprinast alone” value is reported as 1.181. On to `Nc1nonc1-c1nc2cnccc2n1C1CC1` [SB-736302], for which the “fold change in fluorescence relative to zaprinast alone” value was found to be 1.282. `CCn1c(-c2ccccn2)nc2cnccc21` [SB-736398]: the “fold change in fluorescence relative to zaprinast alone” value came out at 1.076. Turning to `CCn1c(-c2ccc[nH]c2=O)nc2cnccc21` [SB-736715], the “fold change in fluorescence relative to zaprinast alone” value was found to be 0.9368. For `CCOc1nccc2c1nc(-c1nonc1N)n2CC` [SB-737198], the “fold change in fluorescence relative to zaprinast alone” value came out at 0.8453.

Take `O=C(Nc1n[nH]c2cc(-c3ccco3)ccc12)C1CC1` [SB-737447]: the “fold change in fluorescence relative to zaprinast alone” value is 1.13.

On to `CCn1c(-c2c(N)noc2C)nc2cnccc21` [SB-737856], for which the “fold change in fluorescence relative to zaprinast alone” value amounted to 0.9935.

For `CCn1c(-c2nonc2N)nc2cncc(Br)c21` [SB-738004], the “fold change in fluorescence relative to zaprinast alone” value was found to be 0.8309. Turning to `O=C(Nc1n[nH]c2cc(-c3ccoc3)ccc12)C1CC1` [SB-738481], the “fold change in fluorescence relative to zaprinast alone” value turned out to be 1.2.

Consider `NS(=O)(=O)c1ccc(-c2ccc3c(NC(=O)C4CC4)n[nH]c3c2)cc1` [SB-738482], for which the “fold change in fluorescence relative to zaprinast alone” value came to 1.098.

Consider `CCn1c(-c2nonc2N)nc2ccncc21` [SB-738561], for which the “fold change in fluorescence relative to zaprinast alone” value came to 1.114. As for `O=C(Nc1n[nH]c2nc(-c3ccco3)c(Br)cc12)C1CC1` [SB-739452], the “fold change in fluorescence relative to zaprinast alone” value came to 1.083.

For the molecule `NS(=O)(=O)c1cccc(-c2ccc3c(NC(=O)C4CC4)n[nH]c3c2)c1` [SB-741905], the “fold change in fluorescence relative to zaprinast alone” value came to 1.374. With `O=C(Nc1n[nH]c2nc(-c3ccco3)c(Br)cc12)C1CCN(Cc2ccccc2)C1` (stereo not drawn) [SB-742034-AC], the “fold change in fluorescence relative to zaprinast alone” value stood at 0.9039.

Consider `O=C(Nc1n[nH]c2nc(-c3nccs3)c(Br)cc12)C1CC1` [SB-742251], for which the “fold change in fluorescence relative to zaprinast alone” value is recorded as 1.325. Turning to `O=C(Nc1n[nH]c2nc(-c3nccs3)c(Br)cc12)C1CCCC1` [SB-742609], the “fold change in fluorescence relative to zaprinast alone” value was determined as 1.102.

Regarding `O=C(Nc1n[nH]c2nc(-c3cccs3)c(Br)cc12)C1CCCC1` [SB-743341], the “fold change in fluorescence relative to zaprinast alone” value was 0.9376. With `O=C(Nc1n[nH]c2nc(-c3ccco3)ccc12)C1CC1` [SB-743899], the “fold change in fluorescence relative to zaprinast alone” value worked out at 1.211. For `CCn1c(-c2nonc2N)nc2c(N3CCCC3)nccc21` [SB-744941] the value was 0.961. The result for `CCn1c(-c2nonc2N)nc2cncc(CNC3CCNCC3)c21` [SB-747651-A] reads 1.501; that for `NCc1ccc(-n2c(-c3nonc3N)nc3cnccc32)cc1` [SB-750140], 1.416.

`Cn1nc(-c2ccc(NC(=O)Nc3ccc4ccccc4c3)c(F)c2)c2cnc(NCCN3CCOCC3)nc21` [SB-750250-M]: the “fold change in fluorescence relative to zaprinast alone” value amounted to 1.757.

On to `CCc1nccc2c1nc(-c1nonc1N)n2CC` [SB-751148], for which the “fold change in fluorescence relative to zaprinast alone” value is 1.115. For `CN(C)CCCn1c(-c2nonc2N)nc2cnccc21` [SB-751399], the “fold change in fluorescence relative to zaprinast alone” value was found to be 1.355. As to `CCn1c(-c2nonc2N)nc2cncc(C(=O)N3CCNCC3)c21` [SB-759335-B], the “fold change in fluorescence relative to zaprinast alone” value is listed as 1.333. Turning to `CCn1c(-c2nonc2N)nc2cncc(C(=O)N3CC[C@H](N)C3)c21` [SB-772077-B], the “fold change in fluorescence relative to zaprinast alone” value was 1.135.

For `Nc1nc(N)c2[nH]c(-c3ccccc3)nc2n1` [SKF-12778], the “fold change in fluorescence relative to zaprinast alone” value turned out to be 1.022. `Cn1ncc2c(N)ncnc21` [SKF-18267]: the “fold change in fluorescence relative to zaprinast alone” value is reported as 0.9633. For `CNc1ncnc2[nH]ncc12` [SKF-18355] the value was 1.025. With `CN(C)c1ncnc2nc[nH]c12` [SKF-31736], the “fold change in fluorescence relative to zaprinast alone” value was found to be 1.087.
